Measured values as given in patent US20230057984A1, “NORMALIZATION OF CULTURE OF CORNEAL ENDOTHELIAL CELLS” (KYOTO PREFECTURAL PUBLIC UNIVERSITY CORPORATION, priority 2011, published 2023).

System: Human corneal endothelial cells
Assay: Immunostaining and Western blot of Na+/K+-ATPase and ZO-1 in human corneal endothelial cells with SB431542 (FIG. 9A A, B)
Type: cell-based
Settings: HCEC
Protocol: For tissue staining examination, cultured MCECs or HCECs were put into Lab-Tek™ Chamber Slides™ (NUNC A/S, Roskilde, Denmark), fixed with 4% formaldehyde for 10 minutes at a room temperature (RT), and incubated for 30 minutes with 1% bovine serum albumin (BSA). Specifically, cultured MCECs or HCECs on the Lab-Tek™ Chamber Slides™ (NUNCA/S, Roskilde, Denmark) were fixed at a room temperature for 10 minutes in 4% formaldehyde, followed by incubation for 30 minutes together with 1% bovine serum albumin (BSA). In order to examine the phenotype of CEC, immunohistochemical analysis was directed to a protein associated with tight junction, ZO-1 (Zymed Laboratories, Inc., South San Francisco, Calif.), a protein associated with the pumping function, Na^+/K^+-ATPase (Upstate Biotec, Inc., Lake Placid, N.Y.), fibronectin (BD, Franklin Lakes, N.J.), and actine. As markers associated with the function of CEC, ZO-1 and Na^+/K^+-ATPase were used; fibronectin and type 1 collagen were used to evaluate the change in a fibroblastic manner; and staining of actine was used to evaluate the phenotype of the cells. Staining of ZO-1, Na^+/K^+-ATPase, type 1 collagen and fibronectin was each performed using 1:200 dilution of ZO-1 polyclonal antibody, Na^+/K^+-ATPase monoclonal antibody, and fibronectin monoclonal antibody. As to secondary antibody, 1:2000 dilution of Alexa Fluor (registered trademark) 488 label or Alexa Fluor (registered trademark) 594 label goat antimouse IgG (Life Technologies) was used. Staining of actine was performed using 1:400 dilution of Alexa Fluor (registered trademark) 488 label phalloidin (Life Technologies). […] Next, the slides were observed through a fluorescence microscope (TCS SP2 AOBS; Leica Microsystems, Welzlar, Germany).
Next, reaction was allowed for 1 hour at a room temperature with ALEXA FLUOR 488 (INVITROGEN (catalog number: A21206)) and ALEXA FLUOR 594 (INVITROGEN (catalog number: A21203)), diluted with TBS-T by 1,000 fold. […] After washing, bands were detected using an ECL-ADVAVCE Western Blotting Detection Kit (GE healthcare Japan (catalog number: RPN2135V)). […]

For NC(=O)c1ccc(-c2nc(-c3ccc4c(c3)OCO4)c(-c3ccccn3)[nH]2)cc1 [SB431542], the “expression of Na+/K+-ATPase and ZO-1 (immunostaining)” value (1 μM SB431542, in normal culture medium only a subpopulation of cells) was “expression was recognized in all the cells”, the “intracellular localization of Na+/K+-ATPase and ZO-1” value (SB431542) was “allows for the intracellular localization of Na^+/K^+-ATPase and ZO-1 in a cell membrane” and the “protein expression of Na+/K+-ATPase and ZO-1 (Western blot)” value (SB431542 0.1 μM, 1 μM, 10 μM) was “makes it possible to maintain the protein expression thereof”.
